Experimental data taken from patent publication US20030162837A1, “Carboxyfullerenes and methods of use thereof” (priority 2002, published 2003).
pIC50: −log10 of the molar value. Values joined by “and” are separate entries in the source; they are usually repeats but may differ in a detail not shown here. Equal entries are not always repeated. “Also recorded” adds a separate entry of the source.

Assays:
monkeys = conditions: mean survival 25 months; cited from earlier work
[1] = treated animals; cited from earlier work
[2] = Superoxide elimination: cytochrome c reduction (hypoxanthine/xanthine oxidase); assay type: biochemical; conditions: for pIC50: superoxide from hypoxanthine/xanthine oxidase
Procedure: (a) Superoxide was generated by oxidation of hypoxanthine by xanthine oxidase and assayed by reduction of cytochrome c (at absorbance maximum […]).
The ability of C3 to eliminate superoxide radical was assessed using three separate methods. In the first, O2 ? was generated by metabolism of hypoxanthine by xanthine oxidase (reaction 1). O2 ? production was determined by following cytochrome c reduction (absorbance max 550 nm) on a microtiter platereader as described (Quick et al., 2000). Stock solutions of cytochrome c were evaluated on a Beckman DU650 spectrophotometer to verify that that cytochrome c stock was fully oxidized prior to use, and to confirm the concentration of the stock. The reaction was run in the presence of superoxide dismutase (bovine SOD1, Sigma) to determine the non-specific reduction of cytochrome c (i.e. the rate of reaction in the absence of O2 ? ).

xanthine oxidase [3] = molecular target: T1, xanthine oxidase (Homo sapiens, UniProt P47989); assay: Xanthine oxidase metabolism of hypoxanthine (purines by HPLC); assay type: biochemical
T1 sequence (P47989 whole entry, species assumed): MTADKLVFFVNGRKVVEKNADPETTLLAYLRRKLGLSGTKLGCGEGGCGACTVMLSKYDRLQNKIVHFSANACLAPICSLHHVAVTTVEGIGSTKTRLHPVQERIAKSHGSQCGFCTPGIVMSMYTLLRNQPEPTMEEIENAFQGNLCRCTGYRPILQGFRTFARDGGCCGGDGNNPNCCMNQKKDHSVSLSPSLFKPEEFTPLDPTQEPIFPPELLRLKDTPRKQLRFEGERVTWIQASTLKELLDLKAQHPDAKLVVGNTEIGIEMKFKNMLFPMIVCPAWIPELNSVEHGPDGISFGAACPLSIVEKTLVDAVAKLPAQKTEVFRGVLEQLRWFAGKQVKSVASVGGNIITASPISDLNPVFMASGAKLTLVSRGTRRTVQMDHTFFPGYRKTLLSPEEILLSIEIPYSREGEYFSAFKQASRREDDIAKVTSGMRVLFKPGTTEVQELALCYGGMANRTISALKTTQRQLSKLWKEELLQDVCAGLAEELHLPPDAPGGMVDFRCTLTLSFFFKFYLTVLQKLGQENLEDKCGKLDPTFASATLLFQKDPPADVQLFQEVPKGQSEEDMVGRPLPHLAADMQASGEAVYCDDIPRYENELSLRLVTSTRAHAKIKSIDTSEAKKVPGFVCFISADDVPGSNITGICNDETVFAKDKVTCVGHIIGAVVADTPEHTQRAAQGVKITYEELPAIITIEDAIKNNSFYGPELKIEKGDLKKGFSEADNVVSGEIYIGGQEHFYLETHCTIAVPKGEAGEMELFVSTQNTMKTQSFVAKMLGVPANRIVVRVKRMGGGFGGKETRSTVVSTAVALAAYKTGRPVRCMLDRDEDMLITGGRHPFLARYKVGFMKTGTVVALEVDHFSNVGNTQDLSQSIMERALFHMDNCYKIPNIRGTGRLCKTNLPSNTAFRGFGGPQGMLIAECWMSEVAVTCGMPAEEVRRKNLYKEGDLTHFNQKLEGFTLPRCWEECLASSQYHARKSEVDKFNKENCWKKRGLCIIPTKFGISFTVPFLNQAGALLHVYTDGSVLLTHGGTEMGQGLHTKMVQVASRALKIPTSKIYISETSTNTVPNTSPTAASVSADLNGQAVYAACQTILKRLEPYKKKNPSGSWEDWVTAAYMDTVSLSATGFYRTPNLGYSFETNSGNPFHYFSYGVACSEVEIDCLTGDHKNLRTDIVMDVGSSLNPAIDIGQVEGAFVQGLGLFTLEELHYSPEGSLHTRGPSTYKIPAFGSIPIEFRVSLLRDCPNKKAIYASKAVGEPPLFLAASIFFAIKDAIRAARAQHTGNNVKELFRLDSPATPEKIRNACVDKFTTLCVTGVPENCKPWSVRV
Procedure: Hypoxanthine and its metabolites xanthine and uric acid were analyzed by HPLC at specific times during the xanthine oxidase: hypoxanthine reaction. The reaction was allowed to run for 40 or 100 minutes and was stopped by the addition of trifloroacetic acid (0.1% TFA) to denature xanthine oxidase. Samples were injected onto the HPLC and separated on a C18 column.

Drosophila = conditions: cited from earlier work
Fisher 344 rats [4] = conditions: cited from earlier work
rats = rats treated from age 96 weeks through end of life; control 147+/−1; cited from earlier work
C57B6 mice = conditions: chronic treatment starting at 18 months of age; cited from earlier work
Fisher 344 rats [5] = conditions: same dose; cited from earlier work
[6] = Oxygen consumption studies with H2O2 (re-evolution of oxygen); assay type: biochemical
[7] = Characterization of C3 after exposure to H2O2 (HPLC, spectroscopy); assay type: physicochemical; conditions: H2O2 20-200 mM; HPLC and spectroscopy
[8] = system: C57B6NIH male and female mice; assay: Longevity trial with mice (Kaplan-Meier survival, weights); assay type: in vivo
Procedure: FIG. 4 illustrates the survival curve for mice treated by the process of the instant invention vs. control. […]. The date of spontaneous death for each mouse was recorded, and used to calculate the lifespan. Lifespan of each mouse was calculated in months because mice received from the NIA rodent colony have their birth month, but not their specific birth date, recorded. Average survival was calculated for each treatment and the mean lifespans were compared using a t-test with significance set to p<0.05 (actual p=0.033). The lifespan of control mice was 23.5±5.5 months (mean±SD, n=8) and of C3-treated mice was 28.7±3.4 (mean±SD, n=9). This calculation includes one C3-treated mouse which is still alive as of Feb. 21, 2002, and whose lifespan was included as of this date. Continued survival by this mouse will further increase the average difference in lifespan, and will decrease the p value (increase the significance). […].
Twelve month old C57B6NIH male and female mice (equal numbers) were purchased from the National Institute on Aging (NIA) Aging Rodent Colony. Mice shipped from this colony were not selected in any way for health, tumors or other disabilities, and all mice obtained from the colony were subsequently enrolled in the study. Mice were randomly placed in same-sex numbered cages, two per cage, ear-punched for identification, and weighed. Mice were then trained on a rotorod twice per week for three sessions, and were then tested on the rotorod in three sessions to measure motor performance at baseline. Cages were then assigned to receive either treatment A or treatment B by an observer who was blind to what these treatments would be.
Solution A or solution B was placed in the water bottles, and solutions were topped-off twice weekly, and filtered to remove any particulates biweekly by an individual blind to the identity of the solutions. At 19 months of age, mice were weighed again, and underwent another round of rotorod training and testing. Mice were allowed to die spontaneously, and their date of death were recorded by the Animal Housing Facility staff as part of the normal operating procedure of the facility. […] When animals died, the cage number, identity of the animal, and the date of death were recorded on the death notice, which was then sent to the laboratory, where the information was entered into the database.
In addition, because longevity was increased by the oral dosing of a drug, it is the first practical method for achieving increased longevity in metazoans.

xanthine oxidase [9] = molecular target: T1, xanthine oxidase; assay: O2 consumption during the xanthine oxidase reaction (Clark-type O2 electrode); assay type: biochemical; conditions: in the presence of C3 compared with SOD
Procedure: O2 consumption during the xanthine oxidase reaction was determined using an oxymetry chamber equipped with a Clark-type O2 electrode (Hansatech, UK).

[10] = Inhibition of pyrogallol autoxidation to purpurogallin; assay type: biochemical
Procedure: Pyrogallol autooxidation to purpurogallin was assayed as described. Briefly, Tris-cacodylic acid buffer (55.6 mM) buffer, pH 8.2, was prepared with 1 mM diethyltriaminopentaacetic acid (DTPA) (TCB solution). The pyrogallol solution contained 10 mM pyrogallol in 10 mM HCl. To 0.9 ml of TCB, 0.1 ml of pyrogallol solution was added, rapidly vortexed, and placed in the cuvette. The increase in absorbance at 420 nm was followed for 60 sec in a Beckman DU 650 spectrophotometer at room temperature. The rate of pyrogallol autoxidation in the presence of SOD (100 U/ml) was subtracted from that of the control reaction without SOD to determine the rate that was specifically due to reaction with O2 ? .

[11] = Pharmacokinetics study in mice; assay type: in vivo
Excerpt: […]. […] […].

[12] = Characterization of C3 after exposure to superoxide (HPLC, mass spectrometry); assay type: physicochemical
Excerpt: Samples were then immediately injected onto the HPLC.
To maximize the amount of modified C3 present should structural changes occur, hexacarboxylic acid C3 and its decarboxylation products were exposed to superoxide generated by the xanthine oxidase reaction for four consecutive reactions by re-addition of the substrate, hypoxanthine. […] Compounds were extracted from the reaction mixture, and re-injected onto the HPLC. […] Peaks were collected and evaluated by mass spectrometry, but no changes in the molecular ions were observed.

Molecule: O=CC[C@@H](O)[C@H](O)[C@H](O)CO [2-deoxyglucose]
- lifespan of one treated monkey (monkeys): 38 months
- body temperature [1]: lowered
- plasma insulin levels [1]: decreased

Molecule: O=C(O)c1ccc(/C2=C3\C=CC(=N3)/C(c3ccc(C(=O)O)cc3)=c3/cc/c4[n]3[Mn]([Cl])[n]3c2ccc3/C(c2ccc(C(=O)O)cc2)=C2/C=CC(=N2)\C=4c2ccc(C(=O)O)cc2)cc1 [MnTBAP, reference compound]
- pIC50 [2]: 4.30

Molecule: O=c1[nH]c(=O)c2c[nH]nc2[nH]1 [Oxypurinol, reference compound]
- inhibition of purine metabolism (xanthine oxidase [3]; concentrations similar to those previously reported (data not shown)): completely inhibit

Molecule: C#CCN(C)[C@H](C)Cc1ccccc1 [deprenyl]
- effect on lifespan (Drosophila): did not show an increase in lifespan
- increase in longevity (Fisher 344 rats [4]; not statistically significant): 7%
- mean survival (Fisher 344 rats [4]; treatment from 18 months of age, controls 28): 30 months
- lifespan (rats): 198+/−2 weeks
- survival benefit (C57B6 mice): failed to show any survival benefit
- effect on mortality and lifespan (Fisher 344 rats [5]): greater mortality and shortened lifespan

Molecule: SOD: superoxide dismutase (bovine SOD1, Sigma) [reference compound]
- Reaction rate (k) ([2]; reaction with superoxide, cytochrome c reduction): 2e+09 M⁻¹ s⁻¹
- pIC50 [2]: 6.30

Molecule: catalase [reference compound]
- re-evolution of oxygen from H2O2 [6]: rapid re-evolution of oxygen

Molecule: e,e,e C60[C(COOH)2]3 [C3]
- structural change after exposure to H2O2 [7]: No change; also recorded: no change in the size or distribution of peaks; also recorded: no permanent chemical or structural changes
- re-evolution of oxygen from H2O2 [6]: significantly slower than that seen with catalase
- concentration of superoxide in the reaction ([2]; 500 μM): zero
- pIC50 [2]: 3.48
- effect on weight ([8]; C3-treated mice): not accompanied by a reduction in weight
- lifespan (mean±SD) ([8]; C57B6 mice, C3 0.5 mg/kg/day in drinking water from age 12 months through end of life, n=9, control 23.5±5.5, 0.5 mg/kg/day): 28.7±3.4 months and 28.7 months
- weight at 19 months, females ([8]; females, control 27±1): 29+1 grams
- weight at 19 months, males ([8]; males, control 35±4): 35±6 grams
- oxygen utilization by xanthine oxidase (xanthine oxidase [9]): similar
- inhibition of xanthine oxidase metabolism of hypoxanthine (xanthine oxidase [3]; 300 μM): < 10%
- inhibition of xanthine oxidase metabolism of hypoxanthine (xanthine oxidase [3]; 500 μM): 15%
- pIC50 [10]: 3.44
- plasma half-life ([11]; mice): 8 h
- route of clearance ([11]; mice): excretion through both the liver and kidney
- fraction of dose absorbed when given orally ([11]; oral (e.g. drinking water) relative to intravenous, intraperitoneal or subcutaneous): 1/15
- structural change after exposure to superoxide [12]: No change in the size or distribution of peaks; also recorded: no permanent chemical or structural changes
